# Measurements taken from US12589087B2, “Enantiomer selective action on neurotransmission” (The Board of Trustees of the Leland Stanford Junior …, priority 2021, dated 2026).
# Experiments:
# [1] = tested on: murine primary cerebral cortical neuron cultures; assay: Neuronal transport and metabolism of 2MeGln; format: cell-based, mouse; settings: 1 mM substrate, 2 h, 37° C., neurons
# Protocol: The procedure was adapted from an existing protocol. Wild-type (WT) C57BL/6J mating pairs were housed according to Stanford IACUC protocol. On day P0, pups were euthanized and brains dissected in cold HBSS (without Ca^2+ or Mg^2+). The forebrain was microdissected to isolate the cortex and hippocampus. These brain regions were minced in cold HBSS before trypsinization at 37° C. for 9 minutes, followed by trituration, through 2 glass polished Pasteur pipettes. The resulting cell suspension was passed through a 100 μm filter to isolate single cells which were sedimented at 250 g for 5 minutes. The cell pellet was then resuspended in complete Neural Basal Media (Neural Basal Media+Glutamax+B-27 Plus Supplement+Pen/Strep)+10% FBS, counted using a hemocytometer and plated at 1×10^6 cells per mL into a 24 well plate (1 mL per well) coated with poly-D-lysine and laminin. Cultures were grown at 37° C./5% CO2 in a tissue culture incubator. Media was exchanged 50% on day 1 in vitro (1 DIV) with fresh complete Neural Basal Media without FBS and thereafter every other day with the same media. On 3 DIV the media was spiked with 2 μM AraC to limit glial growth. On 10 DIV the media was completely replaced with 500 μL Neural Basal Media containing B-27 Plus Supplement+Pen/Strep without added Glutamax but instead containing 1 mM substrate at 37° C. for 2 h. […]
# [2] = target: T1, human glutaminase GLS1 (Homo sapiens, UniProt O94925); assay: Catalysis of 2MeGln hydrolysis by GLS1 glutaminase; format: biochemical; settings: 10 mM substrate, 5 ng/mL enzyme, phosphate pH 7.4
# T1 construct: purchased Sigma SRP0516
# T1 sequence (O94925 55-669): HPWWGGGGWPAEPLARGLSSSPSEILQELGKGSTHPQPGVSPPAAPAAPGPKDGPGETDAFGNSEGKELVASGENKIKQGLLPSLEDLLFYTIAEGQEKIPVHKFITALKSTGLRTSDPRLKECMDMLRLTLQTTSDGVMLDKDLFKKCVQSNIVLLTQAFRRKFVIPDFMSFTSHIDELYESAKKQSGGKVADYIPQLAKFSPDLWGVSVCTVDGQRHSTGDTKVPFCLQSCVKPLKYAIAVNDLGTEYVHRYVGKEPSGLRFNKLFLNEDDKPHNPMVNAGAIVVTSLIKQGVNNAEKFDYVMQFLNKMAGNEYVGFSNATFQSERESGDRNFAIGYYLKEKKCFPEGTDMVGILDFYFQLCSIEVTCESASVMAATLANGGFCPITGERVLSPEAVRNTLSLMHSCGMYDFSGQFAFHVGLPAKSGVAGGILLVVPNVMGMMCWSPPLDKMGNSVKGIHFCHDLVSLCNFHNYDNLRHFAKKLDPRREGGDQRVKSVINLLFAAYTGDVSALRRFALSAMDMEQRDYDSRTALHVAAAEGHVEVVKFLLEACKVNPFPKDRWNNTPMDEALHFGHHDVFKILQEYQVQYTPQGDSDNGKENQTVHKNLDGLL
# Protocol: The procedure was adapted from an existing protocol. To a reaction mixture in a 1.5 mL microcentrifuge tube containing 10 mM rac-2MeGln or L-Gln-^13C2 in 100 mM phosphate pH 7.4 buffer made in 20% atom ^18O water, recombinant GLS1 (final concentration: 5 ng/mL) was added. The tubes were incubated in a preheated thermomixer at 37° C. and periodically shaken at 600 rpm (30 s on, 30 s off). 5 μL aliquots were collected in triplicate every 5 min and immediately diluted with 195 μL of cold 60% ACN containing 10 μM Glu-d5 and Gln-d5 as internal standards in a 96 well plate. After collecting all samples, the plate was shaken at 1000 rpm for 5 min at room temperature, and then stored at −80° C. Before analysis the plate was thawed and 10 μL aliquots of the extracted reaction mixtures were diluted with 190 μL of 90% acetonitrile.
# The quantification of the newly formed 2MeGlu in the presence of the preexisting trace amounts was performed in the following way. Peak area ratio of Glu-^13C2 to Glu-^13C2^18O was calculated in all samples containing Glu-^13C2. The mean ratio value was then applied to calculate the hypothetical peak area of the newly formed 2MeGlu based on the directly measured 2MeGlu-^18O peak area. The ratio of the newly formed 2MeGlu peak area and the total 2MeGlu peak area was applied to calculate the concentration of the newly formed 2MeGlu from the total 2MeGlu concentration determined directly using the calibration curve.
smiles,measurement,setting,value
"NC(=O)CC[C@H](N)C(=O)O [Gln, L-glutamine, reference compound]","intracellular [1,2-13C]Gln, lower than 2MeGln in corresponding samples",[1],2 fold
same,apparent reaction rate of GLS1 hydrolysis,[2],65 µM/min
